Results on four compounds are retold here after US5118601A, “Method of screening purine nucleoside compounds or analogs for the ability to enhance the cellular synthesis and release of adenosine” (The Regents of the University of California, priority 1989, dated 1992).

For data set [1], the system named is Mouse bone marrow-derived mast cells. In words: Mast cell leukotriene C4 release (radioimmune assay). In kind it is cell-based. Conditions: 100 μM for six days, challenged 20 minutes with A23187; control 51. Here is the method:
(§1) By preventing mast cell degranulation, it is possible to prevent or control a patient's allergic response. Bone marrow obtained from Balb/C mice femurs was cultured in a 1:1 mixture of Razin media and conditioned media, produced by co-culturing splenocytes from C57B1/6J and C3H mice in the present of Concanavalin A as described by Razin et al. in the Proc. Natl. Acad. Sci. USA 28: 2559-2561, 1981. After weekly passaging and at least 15 days in tissue culture, the resulting cells were 90% pure mast cells and 95% viable as assessed by Trypan blue exclusion. Cells exposed to ribavirin in culture were washed three times prior to use in experiments. Parallel cultures of cells grown in media alone were used as controls for pharmacologically manipulated mast cells. Cell growth was assessed by counting cells at particular time pints and comparing actual numbers of ribavirin-treated cells to numbers of cells grown in media alone.

In data set [2] the test system is patients with adenylosuccinase deficiency (autism). In words: Therapeutic trial in patients with adenylosuccinase deficiency (autism). In kind it is in vivo, human. The source says:
Following authorization, therapeutic trials with AICA riboside were started in two patients with adenylosuccinase deficiency (autism). […] On Day 55, both patients were briefly readmitted for clinical, biochemical and psychiatric evaluation. […] Treatment was maintained until Day 71, and arrested at that date.

The test system of data set [3] is HPRT- neuroblastoma cells. Put plainly: Adenosine excretion by stimulated HPRT- neuroblastoma cells (calcium ionophore A23187). In kind it is cell-based. Conditions: for correction of lowered adenosine secretion of cells deficient in hypoxanthine phosphoribosyl transferase: pretreatment. Here is the method:
(§2) To induce ATP catabolism, the growth medium was replaced by medium containing micromolar amounts of the calcium ionophore A23187 and 1.0 μM deoxycoformycin.

The subject of data set [4] is Mouse bone marrow-derived mast cells. Put plainly: Mast cell beta-hexosaminidase release (degranulation). In kind it is cell-based. Here is the method: as §1
β-hexosaminidase was chosen as a representative granule-associated, preformed mast cell mediator because it is easily quantitated, and its release nearly identically parallels that of histamine. Mouse bone marrow-derived mast cells were centrifuged at 200×g for 5 minutes, washed three times in Tyrode's buffer lacking divalent cations, sensitized for 30 minutes at 37° C. with anti-DNP (dinitrophenyl phosphate) IgE (1 μg/10^6 cells), and challenged with either DNP-BSA antigen ([…]/3×10^5 cells) or A23187 (10 μg/ml/3×10^5 cells) in 400 μl of complete Tyrode's buffer for 10 minutes at 37° C. Reaction mixtures were centrifuged at 200×g for 10 minutes, and supernatant and pellet β-hexasaminidase concentrations were assayed by the hydrolysis of p-nitrophenyl-β-D-glucosamide as described in Schwartz et al. in J. Immunol. […] Spontaneous β-hexosaminidase release was determined in unchallenged cells. The net % of β-hexosaminidase released is defined as follows: [formula] where [β-hex] is βhexosaminidase and super, is supernatant. When exogenous adenosine was present in reaction mixtures, it was added simultaneously with the secretagogue.

The test system of data set [5] is ischemic myocardium. Put plainly: Coronary venous adenosine during coronary artery occlusion in dogs. In kind it is in vivo, dog. The method, then:
FIG. 3. […] Coronary venous blood was collected into chilled 2N perchloric acid at various times before and after coronary artery occlusion. Supernatants from these extracts were neutralized with alamine and freon and evaluated by high performance liquid chromotography.
(§3) Thirteen mongrel dogs were anesthetized with phenobarbital. […] C.V. Dis. 20; 55 (1977). […] Two of the surviving saline-treated animals fibrillated. […] The range was 4.4 to 100 μM.

In data set [6] the test system is pentylene tetrazol-induced seizures. In words: Pentylene tetrazol-induced seizures in the rat. Conditions: 2000 mg/kg (total dose) intraperitoneal. In kind it is in vivo.
In data set [7] the test system is human splenic lymphoblast cell line (WI-L2). Put plainly: Adenosine release by WI-L2 lymphoblasts during ATP breakdown (2-deoxyglucose). In kind it is cell-based. The method, then: The history and properties of the cell line have been described by Hershfield et al. in Science, Vol. 197, p. 1284, 1977.
Catabolism of cellular ATP stores was stimulated by adding either 2-deoxyglucose or a calcium ionophore. At various times, the amount of adenosine released by the cells into the supernatant, or the amount of nucleotides remaining in the cells, was determined by mixing 3 μl of chilled 4.4N perchloric acid with 300 μl of supernatants, or by adding 300 μl of chilled 0.4N perchloric acid to the cell collected as pellets and centrifuging the mixtures at 500×G for 10 minutes at 4° C. […] 1245, 1975. Following centrifugation at 1500×G for three minutes at 4° C., the aqueous phase is removed and frozen at -20° C. until assayed for adenosine, inosine, or for nucleotides. Adenosine was evaluated isocratically on a C-18 microBondapak reverse phase column equilibrated with 4 millimolar potassium phosphate, (pH 3.4):acetonitrile 60% in water (95:5 v/v) buffer. Adenosine elutes at 8-10 minutes, and its identity was confirmed by its sensitivity to adenosine deaminase and by spiking with adenosine standards. The extracted samples from the cell pellet were analyzed for nucleotides by high pressure liquid chromatography on a Whatman Partisil-10 (SAX) column equilibrated with 10 millimolar potassium phosphate, pH 3.78, and eluted with a linear gradient to a 0.25 molar potassium phosphate, 0.5 molar KCl, pH 3.45. […] Peaks were quantitated by comparison with high pressure liquid chromatography analysis of suitable standards.
Cells were grown to about 0.5×10^6 cells/ml (mid-log phase) in FIG. 2 and to about 1.0×10^6 cells/ml (early stationary phase) in FIGS. 7-9.

Data set [8] deals with ischemic myocardium.
Protocol: Regional myocardial blood flow was measured using radiolabelled microspheres infused into the left atrium at 5 minutes (open) and 60 minutes (hatched) of occlusion. The means plus the standard deviations are graphed. The asterisks (*) identify differences from saline-treated dogs that are significant at p<0.01.
Thirteen mongrel dogs were anesthetized with phenobarbital. The anterior coronary vein was cannulated and a blood sample was collected into 2N perchloric acid. […] Regional myocardial blood flow was measured within 15 μm radiolabelled spheres infused into the left atrium at 5 and 60 minutes during the ischemic period, as described by Heymann et al. in Prog. […] The electrocardiogram and arterial pressure were monitored throughout the period of ischemia.
The test system of data set [9] is HPRT+ neuroblastoma cells. Put plainly: Adenosine excretion by stimulated HPRT+ neuroblastoma cells (calcium ionophore A23187). In kind it is cell-based. The method, then: as §2
Data set [10] has as its system ischemic myocardium. Put plainly: Venous inosine levels during coronary artery occlusion in dogs. In kind it is in vivo, dog. Conditions: over the 60-minute assay period. The method, then: as §3
That the increase in the levels of adenosine is due, at least in part, to a reduction in the amount of ATP that is converted to inosine was shown by analysis of venous blood from dogs in Example III for inosine levels.

Data set [11] has as its system ischemia-induced arrhythmias. In words: Arrhythmias during myocardial ischemia in dogs (electrocardiogram). In kind it is in vivo, dog. Conditions: individual treated dogs 1-6. Here is the method:
as §3
One consequence of myocardial ischemia is arrhythmia and the frequency of arrhythmias is related to the degree of reduced blood flow. […] Electrocardiograms recorded during ischemia of Example III were analyzed for the number of premature ventricular depolarizations (PVD) and ventricular tachycardia (VTAC) episodes.

A further data set relates to AMP deaminase. Put plainly: AMP deaminase inhibition (14C-AMP to 14C-IMP conversion, lymphoblast lysate). In kind it is biochemical, human. Conditions: 200 μM of each ribotide.
Where [12] appears, read: three-hour preincubation and four-hour incubation during 2-deoxyglucose treatment.

The structures appear in SMILES notation. Values joined by “and” are separate entries in the source; they are usually repeats but may differ in a detail not shown here. Equal entries are not always repeated.

For `NC(=O)c1ncn([C@@H]2O[C@H](CO)[C@@H](O)[C@H]2O)c1N` [AICA riboside, 5-amino-4-imidazolecarboxamide riboside], the “supernatant leukotriene C4 concentration” value in data set [1] is recorded as 13 nanograms/106 cells. In data set [2] (all dosages used), the “AICA riboside in plasma and CSF” value is “could not be detected”. The “haematology and clinical chemistry parameters” value in data set [2] (before and during the trial treatment) is “found normal”. Besides, the “AICA riboside in plasma” value in [2] (one hour after intravenous administration, 20 mg/kg/day) is given as “undetectable”. Moreover, in data set [2] (patients), the “concentration of ATP and GTP in the erythrocytes” value is “did not influence significantly”. Moreover, in data set [2] (patients), the “urinary output of succinyladenosine, SAICA riboside and uric acid” value was “without significant effect”. Also, the “Concentration of Adenosine” value in data set [3] (HPRT- cells, ionophore 0 μg/ml, AICA riboside 50 μM) is below 0.01 µM; in data set [9] (HPRT+ cells, ionophore 0 μg/ml, AICA riboside 50 μM) it was below 0.01 µM. The “correction of lowered adenosine secretion of cells deficient in hypoxanthine phosphoribosyl transferase” value in data set [3] is “can be corrected”. Further, the β-hexosaminidase released in data set [4] (100 micromolar, A23187 1 μg/ml, 28.8% in its absence) amounted to 17.6%. For the same compound, in the data set on ischemic myocardium [5] (at 1 minute of ischemia, saline peak 0.22 ±0.08 at 10 minutes), the “peak coronary venous adenosine level” value was determined as 1.79 ± 0.35 µM. For the same compound, in the data set with ischemic myocardium [5] (at 60 minutes of ischemia, saline undetectable, in µM), the “coronary venous adenosine level” value is 0.18±0.15. The “adenosine washout on reperfusion” value in the data set on ischemic myocardium [5] (reperfusion) is “significant rise”. Besides, the “adenosine in blood from the right atrium (systemic blood)” value in the data set with ischemic myocardium [5] (systemic sampling) is listed as “no detectable adenosine”. For the same compound, the latency to seizure entry in [6] is given as “dramatic prolongation”. Also, the “adenosine release from lymphoblasts” value is on record as “enhances adenosine release” in [7] (48-hour pretreatment, 100-500 micromolar); “enhanced adenosine release” in data set [7] (18 hours preincubation before 2-deoxyglucose exposure); “increased adenosine release” in data set [7] (setting [12]). In addition, in the data set on ischemic myocardium [8] (dog, in vivo), the “systemic arterial pressure and heart rate versus saline” value is recorded as “no significant differences”. The “flow to normal myocardium” value in the data set with ischemic myocardium [8] (non-ischemic tissue) is given as “did not alter flow”. Further, the “adenosine secreted by treated cells versus control cells” value in data set [9] (50 μM AICA riboside, A23187 and 1.0 μM deoxycoformycin) is “at least twofold more adenosine”. Moreover, the “inosine levels in venous blood” value in the data set with ischemic myocardium [10] is “more than twofold decrease”. In addition, in data set [11], the “PVD, individual dogs” value was 12 EPISODES/H and 10 EPISODES/H and 4 EPISODES/H and 13 EPISODES/H and 6 EPISODES/H. Besides, in [11], the “VTAC, individual dogs” value was 1 EPISODES/H and 0 EPISODES/H and 27 EPISODES/H.

The compound `NC(=O)c1ncn([C@@H]2O[C@H](COP(=O)(O)O)[C@@H](O)[C@H]2O)c1N` [AICA ribotide] showed an AMP deaminase inhibited with AMP deaminase of 38%.

In turn, `NC(=O)c1ncn([C@@H]2O[C@H](COP(=O)(O)O)[C@@H](O)[C@H]2O)n1` [ribavirin monophosphate] yielded an AMP deaminase inhibited in the data set with AMP deaminase of 54%.

With `NC(=O)c1ncn([C@@H]2O[C@H](CO)[C@@H](O)[C@H]2O)n1` [ribavirin, 1-β-D-ribofuranosyl-1H-1,2,4-triazole-3-carboxamide, reference compound], the “correction of lowered adenosine secretion of cells deficient in hypoxanthine phosphoribosyl transferase” value in data set [3] is given as “can be corrected”. For the same compound, in [4] (1 μM for six days), the mediator release entry was “inhibits mediator release significantly”. Further, in data set [4] (1, 10, or 2 μm for six days, challenged with A23187), the “net β-hexosaminidase release versus controls” value was “released significantly less”. In addition, the “β-hexosaminidase release compared to cells cultured in media alone” value in data set [4] (three to seven days in 10 μM, washed, challenged with A23187, p<0.05) is listed as “marked attenuation”. In addition, the “adenosine release from lymphoblasts” value is given as “Increased in vitro adenosine release” in data set [7] (setting [12]); “increased adenosine release” in [7] (three-hour preincubation and four-hour incubation during 2-deoxyglucose treatment, listed as ribivirin).
